Legend:
Format in all cases: cell-based
[1] = test system: primary human total T-cells; experiment: T-cell activation assessed by CD69 expression
Method in brief: (§1)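 Readouts are fold change versus compound-free cells under the same stimulation: plate-bound anti-CD3 (OKT3, 10 μg/mL coating) alone or with soluble anti-CD28 at 5 μg/mL, for 48 h. Isolated human total T cells (1×10^5/well) got inhibitor 1 h beforehand at concentrations such as 10, 1.11 or 0.123 μM. Measured: GM-CSF/IFNγ/TNFα secretion, surface CD69, proliferation by dye dilution.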

[2] = test system: primary human total T-cells; experiment: T-cell activation assessed by cell proliferation (Cell Trace Violet)
Method in brief: as §1

anergic human T-cells = experiment: Anergic T-cell activation assessed by IFNγ secretion (ionomycin-induced anergy); settings: anergic T-cells re-challenged with anti-CD3 and anti-CD28 for 24 hours, read-out: IFNγ Fold change from baseline
Method in brief: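 Human primary T-cells (>95% CD3+) were activated with anti-CD3/anti-CD28 for 2 days, rested 3 days, then made anergic with ionomycin for 18-24 h. Compound (e.g. 10, 1.11, 0.37 μM) was added for 1 h before 24 h anti-CD3/CD28 re-challenge; IFNγ by ELISA or Luminex as fold over untreated anergic baseline, binned A ≤2.50, B 2.51-4.00, C >4.01.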

[3] = CD3/CD28 stimulation, CD4 T-cells, read-out: % CD69+ (CD4)
[4] = CD3/CD28 stimulation, CD8 T-cells, read-out: % CD69+ (CD8)
[5] = CD3 alone stimulation, CD4 T-cells, read-out: % CD69+ (CD4)
[6] = CD3 alone stimulation, CD8 T-cells, read-out: % CD69+ (CD8)
[7] = CD3/CD28 stimulation, CD4 T-cells, read-out: % CP (cell proliferation) (CD4)
[8] = CD3/CD28 stimulation, CD8 T-cells, read-out: % CP (cell proliferation) (CD8)
[9] = CD3 alone stimulation, CD8 T-cells, read-out: % CP (cell proliferation) (CD8)

Row | SMILES | fold induction at 1.11 µM [1, 3] | fold induction at 10 µM [1, 3] | fold induction at 1.11 µM [1, 4] | fold induction at 10 µM [1, 4] | fold induction at 1.11 µM [1, 5] | fold induction at 10 µM [1, 5] | fold induction at 1.11 µM [1, 6] | fold induction at 10 µM [1, 6] | fold induction at 1.11 µM [2, 7] | fold induction at 10 µM [2, 7] | fold induction at 1.11 µM [2, 8] | fold induction at 10 µM [2, 8] | fold induction at 1.11 µM [2, 9] | fold induction at 10 µM [2, 9] | fold induction at 0.37 µM (anergic human T-cells) | fold induction at 1.11 µM (anergic human T-cells) | fold induction at 10 µM (anergic human T-cells)
1 | Cn1cnnc1CC1(c2cccc(N3Cc4c(cc(CN5CC[C@H](C#N)C5)cc4C(F)(F)F)C3=O)c2)COC1 [Compound 422, (S)-1-((2-(3-(3-((4-methyl-4H-1,2,4-triazol-3-yl)methyl)oxetan-3-yl)phenyl)-3-oxo-7-(trifluoromethyl)isoindolin-5-yl)methyl)pyrrolidine-3-carbonitrile] | 1.2 to 1.4 | 1.4 to 1.6 | 1.2 to 1.4 | 1.2 to 1.4 | > 1.6 | > 1.6 | 1.2 to 1.4 | 1.4 to 1.6 | > 4 | > 4 | 2.01 to 3 | 3.01 to 4 | 3.01 to 4 | > 4 | ≤ 2.5 | 2.51 to 4 | 2.51 to 4
2 | Cc1cc(C(=O)Nc2cccc([C@H](C)Cc3nncn3C)c2)nc(C2CC2)n1 [Compound 195, (R)-2-cyclopropyl-6-methyl-N-(3-(1-(4-methyl-4H-1,2,4-triazol-3-yl)propan-2-yl)phenyl)pyrimidine-4-carboxamide] | ≤ 1.2 | > 1.6 | ≤ 1.2 | 1.2 to 1.4 | ≤ 1.2 | > 1.6 | ≤ 1.2 | 1.4 to 1.6 | < 2 | > 4 | < 2 | > 4 | < 2 | > 4 | ≤ 2.5 | ≤ 2.5 | ≤ 2.5
3 | C[C@H](Cc1nncn1C)c1cccc(NC(=O)c2cccc(C(F)(F)F)n2)c1 [Compound 183a, (R)-N-(3-(1-(4-methyl-4H-1,2,4-triazol-3-yl)propan-2-yl)phenyl)-6-(trifluoromethyl)picolinamide] | 1.2 to 1.4 | 1.4 to 1.6 | 1.2 to 1.4 | 1.2 to 1.4 | 1.4 to 1.6 | > 1.6 | 1.2 to 1.4 | 1.4 to 1.6 | 3.01 to 4 | > 4 | 2.01 to 3 | > 4 | 3.01 to 4 | > 4 | ≤ 2.5 | 2.51 to 4 | ≤ 2.5
4 | C[C@H](Cc1nncn1C)c1cccc(NC(=O)c2cc3cc(N4CCNCC4)ccc3cn2)c1 [Compound 472, N-{3-[(2R)-1-(4-methyl-4H-1,2,4-triazol-3-yl)propan-2-yl]phenyl}-6-(piperazin-1-yl)isoquinoline-3-carboxamide] | 1.2 to 1.4 | 1.4 to 1.6 | ≤ 1.2 | 1.2 to 1.4 | 1.4 to 1.6 | 1.4 to 1.6 | ≤ 1.2 | 1.2 to 1.4 | 3.01 to 4 | > 4 | 2.01 to 3 | 2.01 to 3 | 2.01 to 3 | < 2 | ≤ 2.5 | ≤ 2.5 | 2.51 to 4
5 | C[C@H](Cc1nncn1C)c1cccc(N2Cc3c(cc(CN4CC[C@H](F)C4)cc3C(F)(F)F)C2=O)c1 [Compound 399, 6-(((S)-3-fluoropyrrolidin-1-yl)methyl)-2-(3-((R)-1-(4-methyl-4H-1,2,4-triazol-3-yl)propan-2-yl)phenyl)-4-(trifluoromethyl)isoindolin-1-one] | > 1.6 | > 1.6 | 1.2 to 1.4 | 1.2 to 1.4 | > 1.6 | > 1.6 | 1.4 to 1.6 | 1.4 to 1.6 | > 4 | > 4 | > 4 | > 4 | > 4 | > 4 | > 4.01 | > 4.01 | > 4.01
6 | Cn1cnnc1CC1(c2cccc(NC(=O)c3nc4c(C(F)(F)F)cccc4[nH]3)c2)COC1 [Compound 335, N-(3-{3-[(4-methyl-1,2,4-triazol-3-yl)methyl]oxetan-3-yl}phenyl)-4-(trifluoromethyl)-1H-1,3-benzodiazole-2-carboxamide] | 1.4 to 1.6 | > 1.6 | 1.2 to 1.4 | 1.2 to 1.4 | > 1.6 | > 1.6 | 1.2 to 1.4 | 1.4 to 1.6 | > 4 | > 4 | 3.01 to 4 | 3.01 to 4 | > 4 | > 4 | ≤ 2.5 | 2.51 to 4 | > 4.01
7 | Cn1cnnc1C(F)(F)[C@](C)(F)c1cccc(N2Cc3c(cc(CN4CC[C@@H](F)C4)cc3C(F)(F)F)C2=O)c1 [Compound 450] | 1.2 to 1.4 | 1.4 to 1.6 | 1.2 to 1.4 | 1.2 to 1.4 | 1.4 to 1.6 | > 1.6 | 1.2 to 1.4 | 1.4 to 1.6 | > 4 | > 4 | 2.01 to 3 | > 4 | > 4 | > 4 | 2.51 to 4 | 2.51 to 4 | > 4.01
8 | C[C@@H](c1cc2c(c(C(F)(F)F)c1)CN(c1cccc(C3(Cc4nncn4C)COC3)c1)C2=O)N1CC[C@H](F)C1 [Compound 412, 6-((S)-1-((S)-3-fluoropyrrolidin-1-yl)ethyl)-2-(3-(3-((4-methyl-4H-1,2,4-triazol-3-yl)methyl)oxetan-3-yl)phenyl)-4-(trifluoromethyl)isoindolin-1-one] | 1.4 to 1.6 | 1.4 to 1.6 | 1.2 to 1.4 | 1.2 to 1.4 | > 1.6 | > 1.6 | 1.4 to 1.6 | 1.4 to 1.6 | > 4 | > 4 | > 4 | > 4 | > 4 | > 4 | ≤ 2.5 | > 4.01 | > 4.01
9 | Cn1cnnc1CC1(c2cccc(N3Cc4c(cc(CN5CCC6(CC6)C5)cc4C(F)(F)F)C3=O)c2)COC1 [Compound 520, 6-((5-azaspiro[2.4]heptan-5-yl)methyl)-2-(3-(3-((4-methyl-4H-1,2,4-triazol-3-yl)methyl)oxetan-3-yl)phenyl)-4-(trifluoromethyl)isoindolin-1-one] | > 1.6 | > 1.6 | 1.2 to 1.4 | 1.2 to 1.4 | > 1.6 | > 1.6 | 1.4 to 1.6 | 1.4 to 1.6 | > 4 | > 4 | > 4 | > 4 | > 4 | > 4 | ≤ 2.5 | 2.51 to 4 | > 4.01

From patent publication US20220324835A1 (Nurix Therapeutics, Inc., priority 2018, published 2022)
